{"source": "patent US20230167467A1", "about": "“METHODS AND COMPOSITIONS FOR THE PRODUCTION OF ISOBUTENE” (University of Alaska Anchorage, priority 2020, published 2023)", "test_system": "Engineered strains of E. coli", "assay_type": "cell-based", "key": {"[1]": {"settings": "after solvent exposure, vs positive control"}}}
{"smiles": "CC(C)CO", "note": "[isobutanol]", "values": [{"measurement": "expression of RNAse adapter protein rapZ", "value": "downregulation"}, {"measurement": "expression of accBC (fatty acid biosynthesis)", "value": "downregulated"}, {"measurement": "expression of adiA", "value": "downregulated"}, {"measurement": "expression of bssRS (decreasing biofilm material)", "value": "upregulated"}, {"measurement": "expression of chaperone genes groLS and dnaJK", "value": "increased expression"}, {"measurement": "expression of gadABCE (acid resistance via GABA production)", "value": "downregulated"}, {"measurement": "expression of gatY and marCRAB loci", "value": "upregulation"}, {"measurement": "expression of glpABC (glycerol to glycerone phosphate)", "value": "increased in expression"}, {"measurement": "expression of heat shock proteins and chaperones hslJORUV", "value": "upregulation"}, {"measurement": "expression of ibpAB and clpAB (protein protection and repair)", "value": "increased"}, {"measurement": "expression of marA", "value": "upregulated"}, {"measurement": "change in expression of gene adiA", "setting": "[1]", "value": "−2.97 ± 0.87"}, {"measurement": "change in expression of gene adiC", "setting": "[1]", "value": "−2.56 ± 1.03"}, {"measurement": "change in expression of gene adiY", "setting": "[1]", "value": "−0.17 ± 0.65"}, {"measurement": "change in expression of gene bhsA", "setting": "[1]", "value": "4.78 ± 0.60"}, {"measurement": "change in expression of gene bssR", "setting": "[1]", "value": "−1.75 ± 1.29"}, {"measurement": "change in expression of gene bssS", "setting": "[1]", "value": "4.08 ± 0.84"}, {"measurement": "change in expression of gene clpA", "setting": "[1]", "value": "2.07 ± 0.63"}, {"measurement": "change in expression of gene clpB", "setting": "[1]", "value": "4.51 ± 0.69"}, {"measurement": "change in expression of gene clpP", "setting": "[1]", "value": "0.38 ± 0.59"}, {"measurement": "change in expression of gene coaA", "setting": "[1]", "value": "−3.09 ± 0.90"}, {"measurement": "change in expression of gene coaD", "setting": "[1]", "value": "−1.68 ± 0.97"}, {"measurement": "change in expression of gene cspA", "setting": "[1]", "value": "−4.88 ± 0.58"}, {"measurement": "change in expression of gene cspB", "setting": "[1]", "value": "−5.73 ± 1.38"}, {"measurement": "change in expression of gene cspC", "setting": "[1]", "value": "−3.36 ± 0.94"}, {"measurement": "change in expression of gene cspD", "setting": "[1]", "value": "1.73 ± 0.58"}, {"measurement": "change in expression of gene cspE", "setting": "[1]", "value": "−1.94 ± 0.64"}, {"measurement": "change in expression of gene cspF", "setting": "[1]", "value": "−3.40 ± 1.07"}, {"measurement": "change in expression of gene dhaK", "setting": "[1]", "value": "1.05 ± 0.59"}, {"measurement": "change in expression of gene dhaL", "setting": "[1]", "value": "−0.04 ± 0.64"}, {"measurement": "change in expression of gene dnaJ", "setting": "[1]", "value": "3.71 ± 0.69"}, {"measurement": "change in expression of gene dnaK", "setting": "[1]", "value": "4.53 ± 0.66"}, {"measurement": "change in expression of gene fabA", "setting": "[1]", "value": "−2.84 ± 0.81"}, {"measurement": "change in expression of gene fabB", "setting": "[1]", "value": "−0.39 ± 0.68"}, {"measurement": "change in expression of gene fabD", "setting": "[1]", "value": "−2.33 ± 0.53"}, {"measurement": "change in expression of gene flgA", "setting": "[1]", "value": "−3.05 ± 1.60"}, {"measurement": "change in expression of gene flgB", "setting": "[1]", "value": "−8.74 ± 1.90"}, {"measurement": "change in expression of gene flgC", "setting": "[1]", "value": "−8.87 ± 2.24"}, {"measurement": "change in expression of gene flgD", "setting": "[1]", "value": "−6.75 ± 2.03"}, {"measurement": "change in expression of gene flgE", "setting": "[1]", "value": "−4.68 ± 1.21"}, {"measurement": "change in expression of gene flgF", "setting": "[1]", "value": "−5.18 ± 1.70"}, {"measurement": "change in expression of gene flgG", "setting": "[1]", "value": "−6.73 ± 1.69"}, {"measurement": "change in expression of gene flgH", "setting": "[1]", "value": "−4.17 ± 1.80"}, {"measurement": "change in expression of gene gabD", "setting": "[1]", "value": "−2.21 ± 1.41"}, {"measurement": "change in expression of gene gabP", "setting": "[1]", "value": "−1.47 ± 1.32"}, {"measurement": "change in expression of gene gabT", "setting": "[1]", "value": "−1.57 ± 1.34"}, {"measurement": "change in expression of gene gadA", "setting": "[1]", "value": "−0.71 ± 0.69"}, {"measurement": "change in expression of gene gadB", "setting": "[1]", "value": "0.96 ± 0.79"}, {"measurement": "change in expression of gene gadC", "setting": "[1]", "value": "1.56 ± 0.80"}, {"measurement": "change in expression of gene gadE", "setting": "[1]", "value": "−0.46 ± 0.60"}, {"measurement": "change in expression of gene gadW", "setting": "[1]", "value": "−4.10 ± 0.99"}, {"measurement": "change in expression of gene gadX", "setting": "[1]", "value": "−2.01 ± 0.57"}, {"measurement": "change in expression of gene gadY", "setting": "[1]", "value": "−3.37 ± 0.80"}, {"measurement": "change in expression of gene glpA", "setting": "[1]", "value": "5.44 ± 0.87"}, {"measurement": "change in expression of gene glpB", "setting": "[1]", "value": "2.96 ± 0.64"}, {"measurement": "change in expression of gene glpC", "setting": "[1]", "value": "2.92 ± 0.81"}, {"measurement": "change in expression of gene groL", "setting": "[1]", "value": "4.05 ± 0.57"}, {"measurement": "change in expression of gene groS", "setting": "[1]", "value": "4.43 ± 0.50"}, {"measurement": "change in expression of gene hchA", "setting": "[1]", "value": "3.17 ± 0.60"}, {"measurement": "change in expression of gene hslJ", "setting": "[1]", "value": "1.12 ± 0.66"}, {"measurement": "change in expression of gene hslO", "setting": "[1]", "value": "1.72 ± 0.65"}, {"measurement": "change in expression of gene hslR", "setting": "[1]", "value": "2.12 ± 0.65"}, {"measurement": "change in expression of gene hslU", "setting": "[1]", "value": "1.52 ± 0.56"}, {"measurement": "change in expression of gene hslV", "setting": "[1]", "value": "0.88 ± 0.62"}, {"measurement": "change in expression of gene ibpA", "setting": "[1]", "value": "5.74 ± 1.21"}, {"measurement": "change in expression of gene ibpB", "setting": "[1]", "value": "6.79 ± 1.50"}, {"measurement": "change in expression of gene lipA", "setting": "[1]", "value": "0.31 ± 0.60"}, {"measurement": "change in expression of gene lipB", "setting": "[1]", "value": "−2.33 ± 0.69"}, {"measurement": "change in expression of gene narG", "setting": "[1]", "value": "2.47 ± 0.65"}, {"measurement": "change in expression of gene narH", "setting": "[1]", "value": "1.99 ± 0.62"}, {"measurement": "change in expression of gene narI", "setting": "[1]", "value": "0.99 ± 0.94"}, {"measurement": "change in expression of gene narJ", "setting": "[1]", "value": "1.39 ± 0.69"}, {"measurement": "change in expression of gene narK", "setting": "[1]", "value": "−0.93 ± 0.90"}, {"measurement": "change in expression of gene potA", "setting": "[1]", "value": "−5.42 ± 0.87"}, {"measurement": "change in expression of gene potB", "setting": "[1]", "value": "−2.50 ± 1.32"}, {"measurement": "change in expression of gene potC", "setting": "[1]", "value": "−2.97 ± 1.28"}, {"measurement": "change in expression of gene pspA", "setting": "[1]", "value": "5.48 ± 0.55"}, {"measurement": "change in expression of gene pspB", "setting": "[1]", "value": "3.26 ± 0.68"}, {"measurement": "change in expression of gene rpoA", "setting": "[1]", "value": "−0.58 ± 0.44"}, {"measurement": "change in expression of gene rpoB", "setting": "[1]", "value": "−0.72 ± 0.40"}, {"measurement": "change in expression of gene rpoC", "setting": "[1]", "value": "−1.03 ± 0.39"}, {"measurement": "change in expression of gene rpoD", "setting": "[1]", "value": "1.30 ± 0.70"}, {"measurement": "change in expression of gene rpoE", "setting": "[1]", "value": "−1.10 ± 0.62"}, {"measurement": "change in expression of gene rpoH", "setting": "[1]", "value": "1.72 ± 0.52"}, {"measurement": "change in expression of gene rpoN", "setting": "[1]", "value": "−1.50 ± 0.49"}, {"measurement": "change in expression of gene rpoS", "setting": "[1]", "value": "1.73 ± 0.47"}, {"measurement": "change in expression of gene rpoZ", "setting": "[1]", "value": "−0.91 ± 0.54"}, {"measurement": "change in expression of gene spy", "setting": "[1]", "value": "8.88 ± 0.87"}, {"measurement": "change in expression of gene tatA", "setting": "[1]", "value": "−2.04 ± 0.52"}, {"measurement": "change in expression of gene tatB", "setting": "[1]", "value": "−2.87 ± 0.60"}, {"measurement": "change in expression of gene tatC", "setting": "[1]", "value": "−4.38 ± 1.21"}, {"measurement": "change in expression of gene tatD", "setting": "[1]", "value": "−4.11 ± 1.20"}, {"measurement": "change in expression of gene tatE", "setting": "[1]", "value": "0.70 ± 0.64"}, {"measurement": "number of genes with significant changes in expression", "setting": "vs control, Bon Ferroni corrected p-value<0.05", "value": 831, "unit": "genes"}]}
